In brackets after ≈: the same amount, converted by molar mass. Where two headings read alike, the source gives them in different places. Positions of bridges follow the written chain, without caps; N, C: chain ends. Non-standard residues stand in square brackets, D forms with d. Residues, ends and D or L forms follow the SMILES beside them. *: point of attachment. Benzoyl(3-CF3) = O=C(c1cccc(C(F)(F)F)c1)*; Hydrocinnamoyl = O=C(CCc1ccccc1)*; X37 = O=C(c1ccc(C(F)(F)F)cc1F)*; X41 = O=S(=O)(c1ccc(Cl)cc1Cl)*; X3 = O=C(c1ccc(Cl)cc1Cl)*; Octanoyl = CCCCCCCC(=O)*; Orn = NCCC[C@H](N)C(=O)O; Dab = NCC[C@H](N)C(=O)O; Abu = CC[C@H](N)C(=O)O; Dap = NC[C@H](N)C(=O)O
Legend:
Acinetobacter baumannii = system: Acinetobacter baumannii
How it was run: (§1)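 Lipopeptides, as trifluoroacetate salts, tested for MIC in CAMHB by CLSI broth microdilution, with polymyxin B (sulphate) as comparator.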

Enterobacter cloacae = system: Enterobacter cloacae
How it was run: as §1

Klebsiella pneumoniae = system: Klebsiella pneumoniae
How it was run: as §1

Pseudomonas aeruginosa = system: Pseudomonas aeruginosa
How it was run: as §1

[1] = Acinetobacter baumannii ATCC 17978, broth microdilution in CAMHB, TFA salt
[2] = Acinetobacter baumannii ATCC 19606, broth microdilution in CAMHB, TFA salt
[3] = Acinetobacter baumannii FADDI-AB034, broth microdilution in CAMHB, TFA salt
[4] = Enterobacter cloacae FADDI-EC001, broth microdilution in CAMHB, TFA salt
[5] = Enterobacter cloacae FADDI-EC003, broth microdilution in CAMHB, TFA salt
[6] = Enterobacter cloacae FADDI-EC006, broth microdilution in CAMHB, TFA salt
[7] = Pseudomonas aeruginosa ATCC 27853, broth microdilution in CAMHB, TFA salt
[8] = Pseudomonas aeruginosa FADDI-PA022, broth microdilution in CAMHB, TFA salt
[9] = Pseudomonas aeruginosa FADDI-PA025, broth microdilution in CAMHB, TFA salt

Row | Compound | Minimum inhibitory concentration (MIC), Ab ATCC 17978 (Acinetobacter baumannii) [µg/mL] | Minimum inhibitory concentration (MIC), Ab ATCC 19606 (Acinetobacter baumannii) [µg/mL] | Minimum inhibitory concentration (MIC), Ab FADDI-AB034 (Acinetobacter baumannii) [µg/mL] | Minimum inhibitory concentration (MIC), Ec FADDI-EC001 (Enterobacter cloacae) [µg/mL] | Minimum inhibitory concentration (MIC), Ec FADDI-EC003 (Enterobacter cloacae) [µg/mL] | Minimum inhibitory concentration (MIC), Ec FADDI-EC006 (Enterobacter cloacae) [µg/mL] | Minimum inhibitory concentration (MIC), Pa ATCC 27853 (Pseudomonas aeruginosa) [µg/mL] | Minimum inhibitory concentration (MIC), Pa FADDI-PA022 (Pseudomonas aeruginosa) [µg/mL] | Minimum inhibitory concentration (MIC), Pa FADDI-PA025 (Pseudomonas aeruginosa) [µg/mL] | Minimum inhibitory concentration (MIC), Ab ATCC 17978 (Acinetobacter baumannii; [1]) [µg/mL] | Minimum inhibitory concentration (MIC), Ab ATCC 19606 (Acinetobacter baumannii; [2]) [µg/mL] | Minimum inhibitory concentration (MIC), Ab FADDI-AB034 (Acinetobacter baumannii; [3]) [µg/mL] | Minimum inhibitory concentration (MIC), Ec FADDI-EC001 (Enterobacter cloacae; [4]) [µg/mL] | Minimum inhibitory concentration (MIC), Ec FADDI-EC003 (Enterobacter cloacae; [5]) [µg/mL] | Minimum inhibitory concentration (MIC), Ec FADDI-EC006 (Enterobacter cloacae; [6]) [µg/mL] | Minimum inhibitory concentration (MIC), Pa ATCC 27853 (Pseudomonas aeruginosa; [7]) [µg/mL] | Minimum inhibitory concentration (MIC), Pa FADDI-PA022 (Pseudomonas aeruginosa; [8]) [µg/mL] | Minimum inhibitory concentration (MIC), Pa FADDI-PA025 (Pseudomonas aeruginosa; [9]) [µg/mL] | further results
1 | CCCCCCCC(=O)N[C@@H](CCN)C(=O)N[C@H](C(=O)N[C@H](CO)C(=O)N[C@H]1CCNC(=O)[C@H]([C@@H](C)O)NC(=O)[C@H](CCN)NC(=O)[C@H](CCN)NC(=O)[C@H](C)NC(=O)[C@@H](CC(C)C)NC(=O)[C@H](CCN)NC1=O)[C@@H](C)O [Compound 2] (Octanoyl-[Dab]T[dS][Dab][Dab][dL]A[Dab][Dab]T; lactam 4-C) | – | – | – | – | – | – | – | – | – | – | – | – | – | – | – | – | – | – | MIC (Acinetobacter baumannii): 0.5 µg/mL (≈ 0.454 µM); Minimum inhibitory concentration, Ab A ATCC 17978 (Acinetobacter baumannii): 0.5 µg/mL (≈ 0.454 µM); Minimum inhibitory concentration, Ab ATCC 19606 (Acinetobacter baumannii): 0.5 µg/mL (≈ 0.454 µM); Minimum inhibitory concentration, Ab FADDI-AB034 (Acinetobacter baumannii): 0.5 µg/mL (≈ 0.454 µM); Minimum inhibitory concentration, Ec FADDI-EC001 (Enterobacter cloacae): <0.125 µg/mL; Minimum inhibitory concentration, Ec FADDI-EC003 (Enterobacter cloacae): <0.125 µg/mL; Minimum inhibitory concentration, Ec FADDI-EC006 (Enterobacter cloacae): 0.5 µg/mL (≈ 0.454 µM); MIC (Klebsiella pneumoniae): 0.5 µg/mL (≈ 0.454 µM); MIC (Pseudomonas aeruginosa): 8 µg/mL (≈ 7.27 µM); Minimum inhibitory concentration, Pa ATCC 27853 (Pseudomonas aeruginosa): 8 µg/mL (≈ 7.27 µM); Minimum inhibitory concentration, Pa FADDI-PA022 (Pseudomonas aeruginosa): 8 µg/mL (≈ 7.27 µM); Minimum inhibitory concentration, Pa FADDI-PA025 (Pseudomonas aeruginosa): >32 µg/mL
2 | CC[C@@H]1NC(=O)[C@@H](CC(C)C)NC(=O)[C@H](CCN)NC(=O)[C@@H](NC(=O)[C@H](CN)NC(=O)[C@@H](NC(=O)[C@H](CCN)NC(=O)c2ccc(C(F)(F)F)cc2F)[C@@H](C)O)CCNC(=O)[C@H]([C@@H](C)O)NC(=O)[C@H](CCN)NC(=O)[C@H](CCN)NC1=O [Compound 137] (X37-[Dab]T[Dap][Dab][Dab][dL][Abu][Dab][Dab]T; lactam 4-C) | 0.25 (≈ 0.212 µM) | 0.5 (≈ 0.425 µM) | 0.25 (≈ 0.212 µM) | <0.125 | <0.125 | <0.125 | 0.5 (≈ 0.425 µM) | 1 (≈ 0.849 µM) | 4 (≈ 3.4 µM) | – | – | – | – | – | – | – | – | – | –
3 | CC[C@@H]1NC(=O)[C@@H](CC(C)C)NC(=O)[C@H](CCN)NC(=O)[C@@H](NC(=O)[C@H](CN)NC(=O)[C@@H](NC(=O)[C@H](CCCN)NC(=O)c2cccc(C(F)(F)F)c2)[C@@H](C)O)CCNC(=O)[C@H]([C@@H](C)O)NC(=O)[C@H](CCN)NC(=O)[C@H](CCN)NC1=O [Compound 141] ({Benzoyl(3-CF3)}-[Orn]T[Dap][Dab][Dab][dL][Abu][Dab][Dab]T; lactam 4-C) | 4 (≈ 3.41 µM) | 16 (≈ 13.6 µM) | 4 (≈ 3.41 µM) | 2 (≈ 1.7 µM) | 1 (≈ 0.852 µM) | 4 (≈ 3.41 µM) | 1 (≈ 0.852 µM) | 1 (≈ 0.852 µM) | 2 (≈ 1.7 µM) | – | – | – | – | – | – | – | – | – | –
4 | CC[C@@H]1NC(=O)[C@@H](CC(C)C)NC(=O)[C@H](CCN)NC(=O)[C@@H](NC(=O)[C@H](CN)NC(=O)[C@@H](NC(=O)[C@H](CCN)NC(=O)CCc2ccccc2)[C@@H](C)O)CCNC(=O)[C@H]([C@@H](C)O)NC(=O)[C@H](CCN)NC(=O)[C@H](CCN)NC1=O [Compound 145] (Hydrocinnamoyl-[Dab]T[Dap][Dab][Dab][dL][Abu][Dab][Dab]T; lactam 4-C) | – | – | – | – | – | – | – | – | – | 0.5 | 1 | 0.5 | 0.5 | <0.125 | <0.125 | 0.5 | 0.5 | 1 | –
5 | CC[C@@H]1NC(=O)[C@@H](CC(C)C)NC(=O)[C@H](CCN)NC(=O)[C@@H](NC(=O)[C@H](CCCN)NC(=O)[C@@H](NC(=O)[C@H](CCN)NC(=O)c2ccc(Cl)cc2Cl)[C@@H](C)O)CCNC(=O)[C@H]([C@@H](C)O)NC(=O)[C@H](CCN)NC(=O)[C@H](CCN)NC1=O [Compound 147] (X3-[Dab]T[Orn][Dab][Dab][dL][Abu][Dab][Dab]T; lactam 4-C) | – | – | – | – | – | – | – | – | – | 4 | 4 | 2 | <0.125 | 1 | 1 | 1 | 1 | >32 | –
6 | CC[C@@H]1NC(=O)[C@@H](CC(C)C)NC(=O)[C@H](CCN)NC(=O)[C@@H](NC(=O)[C@H](CN)NC(=O)[C@@H](NC(=O)[C@H](CCN)NS(=O)(=O)c2ccc(Cl)cc2Cl)[C@@H](C)O)CCNC(=O)[C@H]([C@@H](C)O)NC(=O)[C@H](CCN)NC(=O)[C@H](CCN)NC1=O [Compound 148] (X41-[Dab]T[Dap][Dab][Dab][dL][Abu][Dab][Dab]T; lactam 4-C) | – | – | – | – | – | – | – | – | – | 0.5 | 2 | 1 | 2 | 4 | 1 | 1 | 1 | 16 | –
7 | CCCCCCCC(=O)N[C@@H](CCN)C(=O)N[C@H](C(=O)N[C@@H](CCN)C(=O)N[C@H]1CCCNC(=O)[C@H]([C@@H](C)O)NC(=O)[C@H](CCN)NC(=O)[C@H](CCN)NC(=O)[C@H]([C@@H](C)O)NC(=O)[C@@H](CC(C)C)NC(=O)[C@H](CCN)NC1=O)[C@@H](C)O [Compound 149] (Octanoyl-[Dab]T[Dab][Orn][Dab][dL]T[Dab][Dab]T; lactam 4-C) | >32 | >32 | >32 | >32 | >32 | >32 | >32 | >32 | >32 | – | – | – | – | – | – | – | – | – | –
8 | colistin [reference compound] | – | – | – | – | – | – | – | – | – | – | – | – | – | – | – | – | – | – | Minimum inhibitory concentration, Ab A ATCC 17978 (Acinetobacter baumannii; Acinetobacter baumannii ATCC 17978, broth microdilution in CAMHB): 0.5 µg/mL; Minimum inhibitory concentration, Ab ATCC 19606 (Acinetobacter baumannii; Acinetobacter baumannii ATCC 19606, broth microdilution in CAMHB): 1 µg/mL; Minimum inhibitory concentration, Ab FADDI-AB034 (Acinetobacter baumannii; Acinetobacter baumannii FADDI-AB034, broth microdilution in CAMHB): 0.5 µg/mL; Minimum inhibitory concentration, Ec FADDI-EC001 (Enterobacter cloacae; Enterobacter cloacae FADDI-EC001, broth microdilution in CAMHB): 0.25 µg/mL; Minimum inhibitory concentration, Ec FADDI-EC003 (Enterobacter cloacae; Enterobacter cloacae FADDI-EC003, broth microdilution in CAMHB): <0.125 µg/mL; Minimum inhibitory concentration, Ec FADDI-EC006 (Enterobacter cloacae; Enterobacter cloacae FADDI-EC006, broth microdilution in CAMHB): <0.125 µg/mL; Minimum inhibitory concentration, Pa ATCC 27853 (Pseudomonas aeruginosa; Pseudomonas aeruginosa ATCC 27853, broth microdilution in CAMHB): 1 µg/mL; Minimum inhibitory concentration, Pa FADDI-PA022 (Pseudomonas aeruginosa; Pseudomonas aeruginosa FADDI-PA022, broth microdilution in CAMHB): 1 µg/mL; Minimum inhibitory concentration, Pa FADDI-PA025 (Pseudomonas aeruginosa; Pseudomonas aeruginosa FADDI-PA025, broth microdilution in CAMHB): 2 µg/mL

— USRE48335E1, “Polymyxin derivatives as antimicrobial compounds” (priority 2014, dated 2020)
